Measurements taken from publication doi:10.1101/2023.05.15.540887, “Comparative analysis of drug-like EP300/CREBBP acetyltransferase inhibitors” (bioRxiv, 2023).

Assays:
Assay in all cases: NCI-60 growth inhibition (sulforhodamine B)
SK-MEL-28 = type: cell-based, human; conditions: SK-MEL-28 (Melanoma), negative log of Molar conc., LCONC -8
HCT-15 = type: cell-based, human; conditions: HCT-15 (Colon Cancer), negative log of Molar conc., LCONC -8
UACC-62 = type: cell-based, human; conditions: UACC-62 (Melanoma), negative log of Molar conc., LCONC -8
COLO205 = type: cell-based, human; conditions: COLO 205 (Colon Cancer), negative log of Molar conc., LCONC -8
IGROV1 = type: cell-based, human; conditions: IGROV1 (Ovarian Cancer), negative log of Molar conc., LCONC -8
OVCAR-4 = type: cell-based, human; conditions: OVCAR-4 (Ovarian Cancer), negative log of Molar conc., LCONC -8
786-0 = type: cell-based; conditions: Homo sapiens, 786-0, Renal Cancer, negative log of Molar value, LCONC -8, EXPID 2301NS84
K-562 = type: cell-based, human; conditions: K-562 (Leukemia), negative log of Molar conc., LCONC -8
MCF7 = type: cell-based; conditions: Homo sapiens, MCF7, Breast Cancer, negative log of Molar value, LCONC -8, EXPID 2301NS84
BT-549 = type: cell-based; conditions: Homo sapiens, BT-549, Breast Cancer, negative log of Molar value, LCONC -8, EXPID 2301NS84
[1] = Homo sapiens, read-out: GI50 NLOGVALUE (converted)
[2] = Homo sapiens, read-out: IC50 NLOGVALUE
[3] = Homo sapiens, read-out: LC50 NLOGVALUE
[4] = Homo sapiens, read-out: IC50 NLOGVALUE (converted)

For `C[C@H](CN[C@@H](C(=O)Nc1ccc(-c2cnn(C)c2)cn1)c1ccccc1)c1ccc(C#N)cc1` [CPI-1612], the GI50 (SK-MEL-28; [1]) was 14.1 µM, the IC50 (SK-MEL-28; [2]) was over 100 µM and the CC50 (SK-MEL-28; [3]) was over 100 µM. For the same molecule, the “TGI NLOGVALUE” (SK-MEL-28) was 4, the “TGI NLOGVALUE” (HCT-15) was 4 and the GI50 (HCT-15; [1]) was 0.0162 µM. For the same molecule, the IC50 (HCT-15; [4]) was 0.0537 µM, the CC50 (HCT-15; [3]) was over 100 µM and the GI50 (UACC-62; Homo sapiens, read-out: GI50 NLOGVALUE) was over 100 µM. For the same molecule, the IC50 (UACC-62; [2]) was over 100 µM, the CC50 (UACC-62; [3]) was over 100 µM and the “TGI NLOGVALUE” (UACC-62) was 4. The “TGI NLOGVALUE” (COLO205) was 4, the GI50 (COLO205; [1]) was 0.0245 µM and the IC50 (COLO205; [4]) was 0.417 µM. For the same molecule, the GI50 (IGROV1; Homo sapiens, IGROV-1, read-out: GI50 NLOGVALUE (converted)) was 0.0759 µM, the IC50 (IGROV1; Homo sapiens, IGROV-1, read-out: IC50 NLOGVALUE (converted)) was 57.5 µM and the CC50 (IGROV1; Homo sapiens, IGROV-1, read-out: LC50 NLOGVALUE) was over 100 µM. The “TGI NLOGVALUE” (IGROV1) was 4, the GI50 (OVCAR-4; [1]) was 2.04 µM and the IC50 (OVCAR-4; [2]) was over 100 µM. The CC50 (OVCAR-4; [3]) was over 100 µM, the “TGI NLOGVALUE” (OVCAR-4) was 4 and the GI50 (786-0; read-out: GI50 NLOGVALUE (converted)) was 55 µM. The IC50 (786-0; read-out: IC50 NLOGVALUE) was over 100 µM, the CC50 (786-0; read-out: LC50 NLOGVALUE) was over 100 µM and the GI50 (K-562; Homo sapiens, K562, read-out: GI50 NLOGVALUE) was under 0.01 µM. The IC50 (K-562; Homo sapiens, K562, read-out: IC50 NLOGVALUE) was under 0.01 µM, the CC50 (K-562; Homo sapiens, K562, read-out: LC50 NLOGVALUE) was over 100 µM and the “TGI NLOGVALUE” (K-562) was 4. The GI50 (MCF7; read-out: GI50 NLOGVALUE) was under 0.01 µM, the IC50 (MCF7; read-out: IC50 NLOGVALUE) was under 0.01 µM and the GI50 (BT-549; read-out: GI50 NLOGVALUE) was over 100 µM. It also gave an IC50 (BT-549; read-out: IC50 NLOGVALUE) of over 100 µM and a CC50 (BT-549; read-out: LC50 NLOGVALUE) of over 100 µM.
